Assay results as given in US5416222A, “3-pyrrolidine methanamines wherein the alpha-carbon is substituted by 1 or 2 lower alkyl groups which are intermediates for pyridone-carboxylic acid derivatives” (Daiichi Seiyaku Co., Ltd., priority 1985, dated 1995).
≈ marks a conversion by molar mass, not a printed value.

Tests used:
E. coli, NIHJ = assay: antimicrobial activity, MIC, standard process of Japan Society of Chemotherapy; assay type: cell-based; conditions: for MIC: Escherichia coli, read-out: minimum growth inhibitory concentration (MIC)
Description: (§1) The antimicrobial activities of the compounds of the present invention were determined according to a standard process designated by the Japan Society of Chemotherapy and the minimum growth inhibitory concentrations (MIC) (μg/ml) the compounds were determined.

Pr. mirabilis, IF03849 = assay: as above; assay type: cell-based; conditions: for MIC: Proteus mirabilis, IF03849, Pr. mirabilis, read-out: minimum growth inhibitory concentration (MIC)
Description: as §1

Pr. vulgaris, 3167 = assay: as above; assay type: cell-based; conditions: for MIC: Proteus vulgaris, 3167, Pr. vulgaris, read-out: minimum growth inhibitory concentration (MIC)
Description: as §1

Ps. aeruginosa, 2063 = assay: as above; assay type: cell-based; conditions: for MIC: Pseudomonas aeruginosa, 2063, Ps. aeruginosa, read-out: minimum growth inhibitory concentration (MIC); for minimum growth inhibitory concentration (MIC): Ps. aeruginosa
Description: as §1

Ps. aeruginosa, 2128 = assay: as above; assay type: cell-based; conditions: for MIC: Pseudomonas aeruginosa, 2128, Ps. aeruginosa, read-out: minimum growth inhibitory concentration (MIC); for minimum growth inhibitory concentration (MIC): Ps. aeruginosa
Description: as §1

Ps. cepacia, IID1340 = assay: as above; assay type: cell-based; conditions: for MIC: Burkholderia cepacia, IID1340, Ps. cepacia, read-out: minimum growth inhibitory concentration (MIC)
Description: as §1

Ps. maltophilia, IID1275 = assay: as above; assay type: cell-based; conditions: for MIC: Stenotrophomonas maltophilia, IID1275, Ps. maltophilia, read-out: minimum growth inhibitory concentration (MIC)
Description: as §1

S. aureus, 209P = assay: as above; assay type: cell-based; conditions: for MIC: Staphylococcus aureus, read-out: minimum growth inhibitory concentration (MIC)
Description: as §1

S. epidermidis, 56500 = assay: as above; assay type: cell-based; conditions: for MIC: Staphylococcus epidermidis, 56500, S. epidermidis, read-out: minimum growth inhibitory concentration (MIC)
Description: as §1

Ser. marcescens, 13001 = assay: as above; assay type: cell-based; conditions: for MIC: Serratia marcescens, 13001, Ser. marcescens, read-out: minimum growth inhibitory concentration (MIC); for minimum growth inhibitory concentration (MIC): Ser. marcescens
Description: as §1

Sh. flexneri, 2a5503 = assay: as above; assay type: cell-based; conditions: for MIC: Shigella flexneri, read-out: minimum growth inhibitory concentration (MIC)
Description: as §1

[1] = test system: Str. faecalis, ATCC 19433; assay: as above; assay type: cell-based; conditions: for MIC: Enterococcus faecalis, ATCC19433, Str. faecalis, read-out: minimum growth inhibitory concentration (MIC)
Description: as §1

Str. pyogenes, G-36 = assay: as above; assay type: cell-based; conditions: for MIC: Streptococcus pyogenes, G36, Str. pyogenes, read-out: minimum growth inhibitory concentration (MIC); for minimum growth inhibitory concentration (MIC): Str. pyogenes
Description: as §1

physchem = assay type: physicochemical; conditions: water
Description: (§2) The water-solubility and acute toxicity of the compounds of the present invention and the comparative compounds, were measured. The results obtained are shown hereunder. The water-solubility was measured by the following method.
(i) Preparation of standard solution
About 400 μg of the sample to be measured was accurately weighed (the weight was defined as W μg), and 0.1N NaOH solution was added thereto to bring the whole volume to 50 ml. The UV absorbance of a given amount of the solution was measured and the measured absorbance was defined as A1.
(ii) Preparation of sample to be measured
Distilled water was added to the sample to be measured (fine powder) in such amount that the sample was not completely dissolved but suspended, and then the suspension was vigorously agitated at room temperature (between 23° and 26° C.) for 30 minutes. Insoluble matter of the sample was removed therefrom by filtration, after which 3 ml sample of the filtrate (satulated aqueous solution of the sample) was taken. 3 ml of 0.2N NaOH solution was added to the filtrate sample to bring the total volume to 6 ml (i.e. the filtrate was diluted to 50% concentration.) To 1 ml of the resulting solution, 0.1N NaOH solution was further added to bring the total volume to 25 ml […]. In this connection, degree of dilution was occasionally changed, depending on degree of UV absorbance. The UV absorbance of the given amount of the solution was measured and the resulting absorbance was defined to as A2. Where the number of dilution is N, water-solubility (s) is obtained from the following equation: [formula]

mouse = assay: acute toxicity to mouse; assay type: in vivo; conditions: 200 mg/kg; i.v.
Description: as §2
*200 mg/kg; i.v, (deaths/total number) As is obvious from the above

[2] = absorption after oral administration to rats; assay type: in vivo; conditions: rat, 20 mg/kg
Description: The compounds of the present invention and the comparative compound were orally given to rats (one group: 5 rats) at a dose of 20 mg/kg to measure the oral absorption of the compounds. The concentration of the compound in the blood of the rat was measured at 15 minutes, 30 minutes, and 1, 2, 3, 4, and 6 hours after administration.
Serum half lives (T1/2) were calculated as 0.693/Kel, where Kel is the elimination rate constant determined by linear regression analysis of the natural logarithm of serum concentration-time data. The area under the serum concentration-versus time curve from zero to 6 h (AUC0-6H) was calculated by the trapezoidal method, The results obtained are as follows: […]

| SMILES | MIC (E. coli, NIHJ) | MIC (Pr. mirabilis, IF03849) | MIC (Pr. vulgaris, 3167) | MIC (Ps. aeruginosa, 2063) | MIC (Ps. aeruginosa, 2128) | MIC (Ps. cepacia, IID1340) | MIC (Ps. maltophilia, IID1275) | MIC (S. aureus, 209P) | MIC (S. epidermidis, 56500) | MIC (Ser. marcescens, 13001) | MIC (Sh. flexneri, 2a5503) | MIC [1] | MIC (Str. pyogenes, G-36) | minimum growth inhibitory concentration (MIC) (Str. pyogenes, G-36) | minimum growth inhibitory concentration (MIC) (Ps. aeruginosa, 2063) | minimum growth inhibitory concentration (MIC) (Ps. aeruginosa, 2128) | minimum growth inhibitory concentration (MIC) (Ser. marcescens, 13001) | also measured |
| --- | --- | --- | --- | --- | --- | --- | --- | --- | --- | --- | --- | --- | --- | --- | --- | --- | --- | --- |
| CCC(N)C1CCN(c2c(F)cc3c(=O)c(C(=O)O)cn(C4CC4)c3c2F)C1 (single isomer, unassigned) [Example 21, 1-Cyclopropyl-6,8-difluoro-7-[3-(1aminopropyl)-1-pyrrolidinyl]-1,4-dihydro-4-oxoquinoline-3-carboxylic acid] | ≤ 0.05 µg/mL | 0.1 µg/mL (≈ 0.255 µM) | ≤ 0.05 µg/mL | 0.2 µg/mL (≈ 0.511 µM) | 0.1 µg/mL (≈ 0.255 µM) | 0.2 µg/mL (≈ 0.511 µM) | ≤ 0.05 µg/mL | ≤ 0.05 µg/mL | ≤ 0.05 µg/mL | ≤ 0.05 µg/mL | ≤ 0.05 µg/mL | ≤ 0.05 µg/mL | ≤ 0.05 µg/mL | – | – | – | – | – |
| CNC(C)C1CCN(c2nc3c(cc2F)c(=O)c(C(=O)O)cn3C2CC2)C1 (stereo not shown) [Example 8] | ≤ 0.05 µg/mL | 0.39 µg/mL (≈ 1.04 µM) | 0.1 µg/mL (≈ 0.267 µM) | 1.56 µg/mL (≈ 4.17 µM) | 0.39 µg/mL (≈ 1.04 µM) | 1.56 µg/mL (≈ 4.17 µM) | 0.78 µg/mL (≈ 2.08 µM) | 0.1 µg/mL (≈ 0.267 µM) | 0.2 µg/mL (≈ 0.534 µM) | 0.39 µg/mL (≈ 1.04 µM) | ≤ 0.05 µg/mL | 0.39 µg/mL (≈ 1.04 µM) | 0.78 µg/mL (≈ 2.08 µM) | – | – | – | – | – |
| CCC(N)C1CCN(c2c(F)cc3c(=O)c(C(=O)O)cn(C4CC4)c3c2F)C1 (stereo not shown) [Example 9, 7-[3-(1-Aminopropyl)-1-pyrrolidinyl]-1-cyclopropyl-6,8-difluoro-1,4-dihydro-4-oxoquinoline-3-carboxylic acid] | ≤ 0.05 µg/mL | 0.1 µg/mL (≈ 0.255 µM) | ≤ 0.05 µg/mL | 0.78 µg/mL (≈ 1.99 µM) | 0.2 µg/mL (≈ 0.511 µM) | 0.39 µg/mL (≈ 0.996 µM) | 0.1 µg/mL (≈ 0.255 µM) | ≤ 0.05 µg/mL | ≤ 0.05 µg/mL | ≤ 0.05 µg/mL | ≤ 0.05 µg/mL | 0.1 µg/mL (≈ 0.255 µM) | – | ≤ 0.05 µg/mL | – | – | – | – |
| CC(N)C1CCN(c2c(F)cc3c(=O)c(C(=O)O)cn(C4CC4)c3c2F)C1 (single isomer, unassigned) [Example 1, 7-[3-(1-Aminoethyl)-1-pyrrolidinyl]-1-cyclopropyl-6,8-difluoro-1,4-dihydro-4-oxoquinoline-3-carboxylic acid] | ≤ 0.05 µg/mL | 0.1 µg/mL (≈ 0.265 µM) | 0.1 µg/mL (≈ 0.265 µM) | – | – | 0.78 µg/mL (≈ 2.07 µM) | 0.2 µg/mL (≈ 0.53 µM) | 0.1 µg/mL (≈ 0.265 µM) | 0.1 µg/mL (≈ 0.265 µM) | – | ≤ 0.05 µg/mL | 0.1 µg/mL (≈ 0.265 µM) | 0.1 µg/mL (≈ 0.265 µM) | – | 0.78 µg/mL | 0.20 µg/mL | 0.20 µg/mL | – |
| CNC(C)C1CCN(c2c(F)cc3c(=O)c(C(=O)O)cn(C4CC4)c3c2F)C1 (single isomer, unassigned) [Example 7] | – | – | – | – | – | – | – | – | – | – | – | – | – | ≤ 0.05 µg/mL | 0.20 µg/mL | 0.10 µg/mL | 0.10 µg/mL | minimum growth inhibitory concentration (MIC) (E. coli, NIHJ): ≤ 0.05 µg/mL; minimum growth inhibitory concentration (MIC) (Pr. mirabilis, IF03849; Pr. mirabilis): ≤ 0.05 µg/mL; minimum growth inhibitory concentration (MIC) (Pr. vulgaris, 3167; Pr. vulgaris): ≤ 0.05 µg/mL; minimum growth inhibitory concentration (MIC) (Ps. cepacia, IID1340; Ps. cepacia): 0.78 µg/mL; minimum growth inhibitory concentration (MIC) (Ps. maltophilia, IID1275; Ps. maltophilia): 0.20 µg/mL; minimum growth inhibitory concentration (MIC) (S. aureus, 209P): ≤ 0.05 µg/mL; minimum growth inhibitory concentration (MIC) (S. epidermidis, 56500; S. epidermidis): ≤ 0.05 µg/mL; minimum growth inhibitory concentration (MIC) (Sh. flexneri, 2a5503): ≤ 0.05 µg/mL; minimum growth inhibitory concentration (MIC) ([1]; Str. faecalis): ≤ 0.05 µg/mL; solubility at 0.5 h (physchem): 710 µg/mL (≈ 1810 µM); Acute toxicity to mouse (mouse): 1/5; half-life ([2]; serum half life, 0.693/Kel): 2.01 h; Cmax ([2]; serum, 5 rats per group): 2210 ng/mL; AUC(0-t) at 6 h ([2]; serum, zero to 6 h, trapezoidal method, read-out: AUC0-6H): 6310 ng·h/mL |
